{"source": "paper PMC9116245", "about": "“New 1,2,3-triazole linked ciprofloxacin-chalcones induce DNA damage by inhibiting human topoisomerase I& II and tubulin polymerization” (Journal of Enzyme Inhibition and Medicinal Chemistry, 2022)", "key": {"CCRF-CEM": {"tested_on": "CCRF-CEM", "type": "cell-based", "details": "Homo sapiens"}, "RPMI-8226": {"tested_on": "RPMI-8226", "type": "cell-based"}, "SR": {"tested_on": "SR", "type": "cell-based, human"}, "A549/ATCC": {"tested_on": "A549/ATCC", "type": "cell-based", "details": "Homo sapiens"}, "EKVX": {"tested_on": "EKVX", "type": "cell-based", "details": "Homo sapiens"}, "NCI-H460": {"tested_on": "NCI-H460", "type": "cell-based", "details": "Homo sapiens"}, "COLO 205": {"tested_on": "COLO 205", "type": "cell-based", "details": "Homo sapiens"}, "HCT-15": {"tested_on": "HCT-15", "type": "cell-based", "details": "Homo sapiens"}, "HT29": {"tested_on": "HT29", "type": "cell-based", "details": "Homo sapiens"}, "KM12": {"tested_on": "KM12", "type": "cell-based", "details": "Homo sapiens"}, "SF-268": {"tested_on": "SF-268", "type": "cell-based", "details": "Homo sapiens"}, "SNB-19": {"tested_on": "SNB-19", "type": "cell-based", "details": "Homo sapiens"}, "SNB-75": {"tested_on": "SNB-75", "type": "cell-based", "details": "Homo sapiens"}, "MALME-3M": {"tested_on": "MALME-3M", "type": "cell-based", "details": "Homo sapiens"}, "M14": {"tested_on": "M14", "type": "cell-based", "details": "Homo sapiens"}, "UACC-257": {"tested_on": "UACC-257", "type": "cell-based", "details": "Homo sapiens"}, "OVCAR-3": {"tested_on": "OVCAR-3", "type": "cell-based", "details": "Homo sapiens"}, "OVCAR-4": {"tested_on": "OVCAR-4", "type": "cell-based", "details": "Homo sapiens"}, "OVCAR-5": {"tested_on": "OVCAR-5", "type": "cell-based", "details": "Homo sapiens"}, "SK-OV-3": {"tested_on": "SK-OV-3", "type": "cell-based", "details": "Homo sapiens"}, "786-0": {"tested_on": "786-0", "type": "cell-based", "details": "Homo sapiens"}, "ACHN": {"tested_on": "ACHN", "type": "cell-based", "details": "Homo sapiens"}, "CAKI-1": {"tested_on": "CAKI-1", "type": "cell-based", "details": "Homo sapiens"}, "BT-549": {"tested_on": "BT-549", "type": "cell-based", "details": "Homo sapiens"}, "MDA-MB-468": {"tested_on": "MDA-MB-468", "type": "cell-based", "details": "Homo sapiens"}, "[1]": {"details": "read-out: LC50 (the source's name)"}}, "note": "Where two headings read alike, the source gives them in different places."}
{"molecule": "COc1cc(/C=C/C(=O)c2ccc(-n3cc(CN4CCN(c5cc6c(cc5F)c(=O)c(C(=O)O)cn6C5CC5)CC4)nn3)cc2)cc(OC)c1OC", "note": "[Compound 4j, (E)-1-cyclopropyl-6-fluoro-4-oxo-7–(4-((1–(4-(3-(3,4,5-trimethoxyphenyl)acryloyl)phenyl)-1H-1,2,3-triazol-4-yl)methyl)piperazin-1-yl)-1,4-dihydroquinoline-3-carboxylic acid]", "values": [{"measurement": "GI50", "setting": "CCRF-CEM", "result": 2.63, "unit": "µM"}, {"measurement": "CC50", "setting": "CCRF-CEM; [1]", "result": "> 100", "unit": "µM"}, {"measurement": "GI50", "setting": "RPMI-8226; Homo sapiens, RPMI-8226, RPMI-8226", "result": 0.401, "unit": "µM"}, {"measurement": "CC50", "setting": "RPMI-8226; Homo sapiens, RPMI-8226, read-out: LC50 (the source's name)", "result": "> 100", "unit": "µM"}, {"measurement": "GI50", "setting": "RPMI-8226; RPMI-8226", "result": 0.4, "unit": "µM"}, {"measurement": "GI50", "setting": "SR", "result": 0.43, "unit": "µM"}, {"measurement": "GI50", "setting": "SR; Homo sapiens", "result": 0.434, "unit": "µM"}, {"measurement": "CC50", "setting": "SR; Homo sapiens, read-out: LC50 (the source's name)", "result": "> 100", "unit": "µM"}, {"measurement": "GI50", "setting": "A549/ATCC", "result": 2.98, "unit": "µM"}, {"measurement": "CC50", "setting": "A549/ATCC; [1]", "result": "> 100", "unit": "µM"}, {"measurement": "GI50", "setting": "EKVX", "result": 4.24, "unit": "µM"}, {"measurement": "CC50", "setting": "EKVX; [1]", "result": "> 100", "unit": "µM"}, {"measurement": "GI50", "setting": "NCI-H460", "result": 2.4, "unit": "µM"}, {"measurement": "CC50", "setting": "NCI-H460; [1]", "result": "> 100", "unit": "µM"}, {"measurement": "GI50", "setting": "COLO 205", "result": 5.08, "unit": "µM"}, {"measurement": "CC50", "setting": "COLO 205; [1]", "result": "> 100", "unit": "µM"}, {"measurement": "GI50", "setting": "HCT-15", "result": 2.25, "unit": "µM"}, {"measurement": "CC50", "setting": "HCT-15; [1]", "result": "> 100", "unit": "µM"}, {"measurement": "GI50", "setting": "HT29; HT-29", "result": 1.24, "unit": "µM"}, {"measurement": "CC50", "setting": "HT29; HT-29, read-out: LC50 (the source's name)", "result": "> 100", "unit": "µM"}, {"measurement": "GI50", "setting": "KM12", "result": 1.57, "unit": "µM"}, {"measurement": "CC50", "setting": "KM12; [1]", "result": "> 100", "unit": "µM"}, {"measurement": "GI50", "setting": "SF-268", "result": 3.09, "unit": "µM"}, {"measurement": "CC50", "setting": "SF-268; [1]", "result": "> 100", "unit": "µM"}, {"measurement": "GI50", "setting": "SNB-19", "result": 4.52, "unit": "µM"}, {"measurement": "CC50", "setting": "SNB-19; [1]", "result": "> 100", "unit": "µM"}, {"measurement": "GI50", "setting": "SNB-75", "result": 1.49, "unit": "µM"}, {"measurement": "CC50", "setting": "SNB-75; [1]", "result": "> 100", "unit": "µM"}, {"measurement": "GI50", "setting": "MALME-3M", "result": 2.59, "unit": "µM"}, {"measurement": "CC50", "setting": "MALME-3M; [1]", "result": "> 100", "unit": "µM"}, {"measurement": "GI50", "setting": "M14", "result": 2.49, "unit": "µM"}, {"measurement": "CC50", "setting": "M14; [1]", "result": "> 100", "unit": "µM"}, {"measurement": "GI50", "setting": "UACC-257", "result": 6.34, "unit": "µM"}, {"measurement": "LC50", "setting": "UACC-257", "result": "> 100", "unit": "µM"}, {"measurement": "GI50", "setting": "OVCAR-3", "result": 1.84, "unit": "µM"}, {"measurement": "CC50", "setting": "OVCAR-3; [1]", "result": "> 100", "unit": "µM"}, {"measurement": "GI50", "setting": "OVCAR-4", "result": 3.94, "unit": "µM"}, {"measurement": "CC50", "setting": "OVCAR-4; [1]", "result": 39.6, "unit": "µM"}, {"measurement": "GI50", "setting": "OVCAR-5", "result": 3.7, "unit": "µM"}, {"measurement": "CC50", "setting": "OVCAR-5; [1]", "result": "> 100", "unit": "µM"}, {"measurement": "GI50", "setting": "SK-OV-3", "result": 7.09, "unit": "µM"}, {"measurement": "CC50", "setting": "SK-OV-3; [1]", "result": "> 100", "unit": "µM"}, {"measurement": "GI50", "setting": "786-0", "result": 1.67, "unit": "µM"}, {"measurement": "GI50", "setting": "ACHN", "result": 3.5, "unit": "µM"}, {"measurement": "CC50", "setting": "ACHN; [1]", "result": "> 100", "unit": "µM"}, {"measurement": "GI50", "setting": "CAKI-1", "result": 5.1, "unit": "µM"}, {"measurement": "CC50", "setting": "CAKI-1; [1]", "result": 51.7, "unit": "µM"}, {"measurement": "GI50", "setting": "BT-549", "result": 1.71, "unit": "µM"}, {"measurement": "GI50", "setting": "MDA-MB-468", "result": 1.96, "unit": "µM"}, {"measurement": "CC50", "setting": "MDA-MB-468; [1]", "result": "> 100", "unit": "µM"}]}
